Test systems include TK-10 renal; A498 renal; SF-295 CNS; HCT-116 colon; OVCAR-4 ovarian; HOP-62 NSCLC; K-562 leukemia; OVCAR-3 ovarian; M14 melanoma; NCI-H522 lung.
Common to all, as to assay: NCI tumour cell line growth inhibition, 48 h

Drawing on PubChem BioAssay (NCI), this text covers TGI and GI50 for 14 compounds.

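Protocol summary: plate cells (96-well), add compound at 5 concentrations, incubate 48 h, interpolate endpoints linearly. GI50 is the concentration that inhibits growth by half. The concentration for full growth arrest is given as TGI.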

As for `N#Cc1c(-c2ccc(Cl)cc2)c2c([nH]c1=O)-c1cc([N+](=O)[O-])ccc1CCC2`, the TGI in the experiment on TK-10 renal is 69.5 µM; with A498 renal it was 37.7 µM; in the experiment with SF-295 CNS, 45.3 µM; in the experiment with HCT-116 colon, 31.9 µM; with OVCAR-4 ovarian, over 100 µM; in the experiment with HOP-62 NSCLC, 45.9 µM. Further, the TGI with K-562 leukemia was over 100 µM; in the experiment with OVCAR-3 ovarian it was 31.8 µM; in the experiment on M14 melanoma it was 73.4 µM; in the experiment on NCI-H522 lung it was 41.8 µM.
Consider `COP(=O)(OC)[C@H](O)[C@H]1C[C@@H]1c1ccccc1`, for which the TGI in the experiment on TK-10 renal, with A498 renal, in the experiment with SF-295 CNS, with OVCAR-4 ovarian, with HOP-62 NSCLC and in the experiment with K-562 leukemia was over 100 µM each time. Also, the TGI in the experiment with OVCAR-3 ovarian, with M14 melanoma and with NCI-H522 lung was over 100 µM in each case.
For `Cc1ccc(C(=O)Nc2ncn(C3CC(O)C(CO)O3)c(=O)n2)cc1` (stereo not drawn), the TGI in the experiment on A498 renal, in the experiment on SF-295 CNS, in the experiment on HCT-116 colon, in the experiment on OVCAR-4 ovarian, with HOP-62 NSCLC and in the experiment with K-562 leukemia was over 100 µM in each case. The TGI was over 56.5 µM in the experiment with OVCAR-3 ovarian and over 100 µM in the experiment with NCI-H522 lung.
For the compound `C/C(=C\C(=N\NC(=N)N)c1ccccc1)c1ccccc1`, the TGI in the experiment on TK-10 renal worked out at 14.1 µM; in the experiment on SF-295 CNS, 1.87 µM; in the experiment with HCT-116 colon, 1.1 µM; with OVCAR-4 ovarian it was 3.16 µM; with HOP-62 NSCLC it was 0.7 µM; in the experiment on K-562 leukemia, 3.88 µM. Besides, the TGI turned out to be 1.03 µM in the experiment with OVCAR-3 ovarian, 2.47 µM in the experiment on M14 melanoma and 1.76 µM in the experiment on NCI-H522 lung.
Regarding `CCN(CCO)CCNc1ccc(C)c2sc3ccccc3c(=O)c12`, the TGI is 21.4 µM with TK-10 renal; 31.2 µM in the experiment on A498 renal; 10.1 µM in the experiment with SF-295 CNS; 7.76 µM with HCT-116 colon; 21.7 µM with OVCAR-4 ovarian; 11 µM in the experiment with HOP-62 NSCLC. The TGI was found to be 11.9 µM in the experiment on K-562 leukemia, 23.3 µM in the experiment with OVCAR-3 ovarian, 3.23 µM with M14 melanoma and 11.4 µM with NCI-H522 lung.
In the case of `O=c1[nH]c(=O)n(CCOCP(=O)(O)O)nc1Br`, the TGI in the experiment on TK-10 renal, in the experiment on A498 renal, in the experiment with HOP-62 NSCLC, in the experiment with OVCAR-3 ovarian, with M14 melanoma and in the experiment with NCI-H522 lung was over 100 µM each time.
On to `COc1ccc2c(c1)CCCc1c-2nc2ccccc2c1N`, for which the TGI in the experiment on TK-10 renal was found to be 23.2 µM; in the experiment on A498 renal it was 20.8 µM; in the experiment on SF-295 CNS it was 23.1 µM; in the experiment with HCT-116 colon, 18.6 µM; with OVCAR-4 ovarian, 27.3 µM; in the experiment on HOP-62 NSCLC it was 12.9 µM. Besides, the TGI in the experiment with K-562 leukemia was determined as 58.5 µM; with OVCAR-3 ovarian it was 27.5 µM; with M14 melanoma, 21.1 µM; with NCI-H522 lung, 28 µM.
For `COc1ccc(N=Cc2ccc(N(CCC#N)S(=O)(=O)c3ccccc3)cc2C)cc1`, the TGI in the experiment on TK-10 renal was 87.6 µM; in the experiment with SF-295 CNS, over 100 µM; in the experiment on HCT-116 colon, over 100 µM; in the experiment with OVCAR-4 ovarian it was over 100 µM; in the experiment with HOP-62 NSCLC it was over 100 µM; in the experiment with K-562 leukemia, over 100 µM. Moreover, the TGI with OVCAR-3 ovarian was over 100 µM; with M14 melanoma it was 71.5 µM; in the experiment on NCI-H522 lung, over 100 µM.
For `CN1NC(c2ccccc2)=C(C#N)C(=O)CC1c1ccc(F)cc1` (stereo not drawn), the TGI in the experiment on TK-10 renal, in the experiment with A498 renal, with SF-295 CNS, in the experiment with HCT-116 colon, in the experiment with OVCAR-4 ovarian and in the experiment on NCI-H522 lung was over 100 µM each time.
As to `CCCCCCCCCCCCSC(=S)c1c(C)[nH]n(CCCCCCCCCCCC)c1=O`, the TGI in the experiment with A498 renal, in the experiment with SF-295 CNS, with HCT-116 colon, in the experiment on OVCAR-4 ovarian, with HOP-62 NSCLC and in the experiment with K-562 leukemia was over 100 µM throughout. The TGI with OVCAR-3 ovarian and in the experiment on NCI-H522 lung was over 100 µM each time.
Take `Cc1cc(=O)n2c3c(c4c(cc13)c(CN(C)C)cc(=O)n4C)OC2`: the TGI is over 88.6 µM in the experiment on TK-10 renal; over 100 µM with A498 renal; over 72.7 µM in the experiment on SF-295 CNS; over 69.5 µM with HCT-116 colon; over 77.9 µM with OVCAR-4 ovarian; over 100 µM in the experiment on HOP-62 NSCLC. The TGI is over 100 µM with K-562 leukemia, 80.1 µM in the experiment with OVCAR-3 ovarian, 31.2 µM in the experiment on M14 melanoma and 28.4 µM with NCI-H522 lung.
For `O=C(NC(Cc1ccc(Cl)cc1)C(=O)O)c1ccc(I)cc1` (stereo not drawn), the TGI in the experiment on A498 renal, with SF-295 CNS, in the experiment with HCT-116 colon, in the experiment with OVCAR-4 ovarian, in the experiment with HOP-62 NSCLC and in the experiment on K-562 leukemia was over 100 µM throughout. For the same compound, the TGI with OVCAR-3 ovarian and in the experiment on NCI-H522 lung was over 100 µM in each case.
`C=C1CC2C3C=C(C)C4=CC(=O)CC[C@]4(C)C3CC[C@]2(C)[C@@]1(OC(C)=O)C(C)=O` (stereo partly drawn): the GI50 was over 100 µM in the experiment on TK-10 renal; over 100 µM in the experiment with A498 renal; 3.38 µM with HCT-116 colon; 2.91 µM in the experiment on OVCAR-4 ovarian; 7.76 µM with HOP-62 NSCLC; 4.21 µM in the experiment with NCI-H522 lung. Also, the TGI with TK-10 renal, with A498 renal, with HCT-116 colon, in the experiment on OVCAR-4 ovarian, with HOP-62 NSCLC and with NCI-H522 lung was over 100 µM in each case.
As for `Cc1cn(Cc2cn(CC3OC(n4cc(C)c(=O)[nH]c4=O)CC3O)nn2)c(=O)[nH]c1=O` (stereo not drawn), the TGI in the experiment with TK-10 renal, with A498 renal, in the experiment with SF-295 CNS, in the experiment with HCT-116 colon, in the experiment on OVCAR-4 ovarian and with HOP-62 NSCLC was over 100 µM each time. Besides, the TGI in the experiment with OVCAR-3 ovarian and in the experiment with M14 melanoma was over 100 µM in each case.
